Article PMC4262670 (Macromolecular bioscience, 2014)

Columns and labels:
[1] = cited from earlier work; for water solubility of free drugs: medium with 0.5 % (v/v) DMSO used to prevent precipitation, no reference given
[2] = tested on: non-small cell lung carcinoma (NSCLC); details: ref [59]; cited from earlier work
[3] = tested on: A2780 and OVCAR-3 human ovarian cancer cell lines; experiment: Single agent in vitro cytotoxicity, WST-8, result stated over both cell lines; assay type: cell-based; details: A2780 versus OVCAR-3, WST-8
[4] = ref [13]–[15]; cited from earlier work
[5] = ref [8]; cited from earlier work
[6] = tested on: first recurrence of ovarian cancer; details: added to carboplatin and gemcitabine; ref [56]; cited from earlier work
[7] = clinical investigation; ref [31]; cited from earlier work

Molecule: C=CCNC1=C2C[C@@H](C)C[C@H](OC)[C@H](O)[C@@H](C)/C=C(\C)[C@H](OC(N)=O)[C@@H](OC)/C=C\C=C(/C)C(=O)NC(=CC1=O)C2=O [17-AAG, 17-(allylamino)-17-demethoxygeldanamycin]
- water solubility, ref 32 ([1]; ref [32]): poorly water soluble

Molecule: CC(=O)O[C@H]1C(=O)[C@@]2(C)[C@H]([C@H](OC(=O)c3ccccc3)[C@]3(O)C[C@H](OC(=O)[C@H](O)[C@@H](NC(=O)c4ccccc4)c4ccccc4)C(C)=C1C3(C)C)[C@]1(OC(C)=O)CO[C@@H]1C[C@@H]2O [paclitaxel]
- mean survival time [2]: 6.5 weeks

Molecule: CC(=O)O[C@@]12CO[C@@H]1C[C@H](O)[C@@]1(C)C(=O)[C@H](O)C3=C(C)[C@@H](OC(=O)[C@H](O)[C@@H](NC(=O)OC(C)(C)C)c4ccccc4)C[C@@](O)([C@@H](OC(=O)c4ccccc4)[C@H]21)C3(C)C [DOC, docetaxel]
- differences in susceptibility of cell lines [3]: did not indicate overall trends in differences in the susceptibility
- water solubility of free drugs [1]: poor water solubility
- cross resistance with paclitaxel [4]: does not demonstrate complete cross resistance with paclitaxel
- in vitro cytotoxicity compared to paclitaxel [5]: superior in vitro cytotoxicity

Molecule: bevacizumab: anti-angiogenic monoclonal antibody against VEGF-A, added to carboplatin and gemcitabine
- disease progression and overall survival [6]: greater reduction in risk of disease progression and an improvement in overall survival

Molecule: COC1=C2C[C@@H](C)C[C@H](OC)[C@H](O)[C@@H](C)/C=C(\C)[C@H](OC(N)=O)[C@@H](OC)/C=C\C=C(/C)C(=O)NC(=CC1=O)C2=O [geldanamycin]
- hepatotoxicity [7]: significant hepatotoxicity

Molecule: CO[C@H]1/C=C\C=C(/C)C(=O)NC2=CC(=O)C(NCCCCCCN)=C(C[C@@H](C)C[C@H](OC)[C@H](O)[C@@H](C)/C=C(\C)[C@@H]1OC(N)=O)C2=O [AHGDM, 17-(hexane-1,6-diamine)-17-demethoxygeldanamycin]
- differences in susceptibility of cell lines [3]: did not indicate overall trends in differences in the susceptibility
- water solubility of free drugs [1]: poor water solubility
